Laboratory results taken from article PMC5448077, “Development of an orally available inhibitor of CLK1 for skipping a mutated dystrophin exon in Duchenne muscular dystrophy” (Scientific Reports, 2017).

Assays:
Experiment in all cases: biochemical
RSK4 = biological target: T1, RSK4 (Homo sapiens, UniProt Q9UK32)
T1 construct: gene RPS6KA6
Method: (§1) These assays rely on the phosphorylation of small synthetic peptides developed for each kinase, and detect activity by changes in electrophoretic mobility (MSA assay) or by binding of a fluorescently labelled peptide to a large micro-particle and concomitant polarization increases (IMAP assay). Reaction conditions for each kinase are described in Supplementary Table S5. All kinase assays were carried out at Carna Biosciences (Kobe, Japan). The inhibitory map was constructed using Kinome Render[41]. Inhibitor (4×), substrate/ATP-Metal (4×), and kinase (2×) solutions were prepared with assay buffer (20 mM HEPES, 0.01% Triton X-100, 2 mM DTT, pH 7.5) and mixed in 384-well plates at room temperature for 1 or 5 h depending on the kinase. Reactions were stopped by the addition of termination buffer (QuickScout Screening Assist MSA; Carna Biosciences). The entire reaction mixture was then applied to a LabChip system (Perkin-Elmer, Waltham, MA, USA) and the product and substrate peptide peaks were separated and quantified, and then heights of product (P) and substrate (S) peptide peaks were calculated. The level of kinase activity was evaluated with the following equation: activity = P/(P + S).

LOK = biological target: T2, LOK (Homo sapiens, UniProt O94804)
T2 construct: gene STK10
Method: as §1

BRSK2 = BRSK2 (Homo sapiens, UniProt Q8IWQ3)
Method: as §1

PHKG2 = PHKG2 (Homo sapiens, UniProt P15735)
Method: as §1

BTK = BTK (Homo sapiens, UniProt Q06187)
Method: as §1

TRKA = biological target: T3, TRKA (Homo sapiens, UniProt P04629)
T3 construct: gene NTRK1
Method: as §1

MET(D1228H) = MET(D1228H) (Homo sapiens, UniProt P08581, D1228H)
Method: as §1

KIT(D816Y) = KIT(D816Y) (Homo sapiens, UniProt P10721, D816Y)
Method: as §1

FGFR3(K650M) = FGFR3(K650M) (Homo sapiens, UniProt P22607, K650M)
Method: as §1

MAP4K2 = MAP4K2 (Homo sapiens, UniProt Q12851)
Method: as §1

JNK3 = biological target: T4, JNK3 (Homo sapiens, UniProt P53779)
T4 construct: gene MAPK10
Method: as §1

TYK2 = TYK2 (Homo sapiens, UniProt P29597)
Method: as §1

JAK2 = JAK2 (Homo sapiens, UniProt O60674)
Method: as §1

JAK1 = JAK1 (Homo sapiens, UniProt P23458)
Method: as §1

TSSK2 = TSSK2 (Homo sapiens, UniProt Q96PF2)
Method: as §1

CLK2 = CLK2 (Homo sapiens, UniProt P49760)
Method: as §1

PKCβ2 = biological target: T5, PKCβ2 (Homo sapiens, UniProt P05771)
T5 construct: gene PRKCB; isoform beta2
Method: as §1

MRCKα = biological target: T6, MRCKα (Homo sapiens, UniProt Q5VT25)
T6 construct: gene CDC42BPA
Method: as §1

CLK3 = CLK3 (Homo sapiens, UniProt P49761)
Method: as §1

PIM2 = PIM2 (Homo sapiens, UniProt Q9P1W9)
Method: as §1

HIPK2 = HIPK2 (Homo sapiens, UniProt Q9H2X6)
Method: as §1

PKCβ1 = biological target: T7, PKCβ1 (Homo sapiens, UniProt P05771)
T7 construct: gene PRKCB; isoform beta 1
Method: as §1

MST1 = biological target: T8, MST1 (Homo sapiens, UniProt Q13043)
T8 construct: gene STK4
Method: as §1

PDK1 = biological target: T9, PDK1 (Homo sapiens, UniProt O15530)
T9 construct: gene PDPK1
Method: as §1

EGFR = EGFR (Homo sapiens, UniProt P00533)
Method: as §1

CDK2/CycA2 = CDK2/CycA2 (Homo sapiens, UniProt P24941)
Method: as §1

PDGFRα(D842V) = biological target: T10, PDGFRα(D842V) (Homo sapiens, UniProt P16234, D842V)
T10 construct: gene PDGFRA
Method: as §1

FMS = biological target: T11, FMS (Homo sapiens, UniProt P07333)
T11 construct: gene CSF1R
Method: as §1

MSSK1 = biological target: T12, MSSK1 (Homo sapiens, UniProt Q9UPE1)
T12 construct: gene SRPK3
Method: as §1

NDR2 = biological target: T13, NDR2 (Homo sapiens, UniProt Q9Y2H1)
T13 construct: gene STK38L
Method: as §1

PRKX = PRKX (Homo sapiens, UniProt P51817)
Method: as §1

PHKG2, sequence (P15735 whole entry): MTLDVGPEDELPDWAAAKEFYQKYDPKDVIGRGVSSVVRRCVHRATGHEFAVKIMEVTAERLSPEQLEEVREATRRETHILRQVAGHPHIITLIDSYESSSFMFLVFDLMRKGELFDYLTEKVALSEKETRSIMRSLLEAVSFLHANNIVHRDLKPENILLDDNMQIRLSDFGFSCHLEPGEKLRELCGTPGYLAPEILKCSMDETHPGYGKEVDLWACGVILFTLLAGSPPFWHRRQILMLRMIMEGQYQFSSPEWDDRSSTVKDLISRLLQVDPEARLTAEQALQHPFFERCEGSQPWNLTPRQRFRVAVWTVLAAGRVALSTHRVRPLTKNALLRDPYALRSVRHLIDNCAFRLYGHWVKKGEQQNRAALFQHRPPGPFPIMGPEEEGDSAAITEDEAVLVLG
BRSK2, sequence (Q8IWQ3 whole entry): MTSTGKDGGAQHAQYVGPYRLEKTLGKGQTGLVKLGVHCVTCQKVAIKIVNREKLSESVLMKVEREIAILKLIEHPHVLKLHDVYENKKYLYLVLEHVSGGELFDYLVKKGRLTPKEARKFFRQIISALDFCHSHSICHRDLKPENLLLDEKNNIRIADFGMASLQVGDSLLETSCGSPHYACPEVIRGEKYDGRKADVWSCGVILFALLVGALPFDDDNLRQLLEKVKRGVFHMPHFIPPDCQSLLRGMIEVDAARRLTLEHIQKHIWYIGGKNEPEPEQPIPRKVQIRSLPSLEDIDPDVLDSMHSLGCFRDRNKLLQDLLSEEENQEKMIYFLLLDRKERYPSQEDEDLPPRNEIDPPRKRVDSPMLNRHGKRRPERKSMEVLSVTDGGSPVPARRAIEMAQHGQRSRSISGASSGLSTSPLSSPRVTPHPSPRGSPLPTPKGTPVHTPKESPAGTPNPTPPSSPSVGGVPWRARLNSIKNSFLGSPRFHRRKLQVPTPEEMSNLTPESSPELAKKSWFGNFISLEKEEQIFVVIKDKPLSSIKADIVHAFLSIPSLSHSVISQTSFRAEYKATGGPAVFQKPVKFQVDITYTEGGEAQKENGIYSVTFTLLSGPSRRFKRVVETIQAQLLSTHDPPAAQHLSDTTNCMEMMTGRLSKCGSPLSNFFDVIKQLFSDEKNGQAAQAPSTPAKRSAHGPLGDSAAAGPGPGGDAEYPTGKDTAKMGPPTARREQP
KIT(D816Y), sequence (P10721 whole entry D816Y): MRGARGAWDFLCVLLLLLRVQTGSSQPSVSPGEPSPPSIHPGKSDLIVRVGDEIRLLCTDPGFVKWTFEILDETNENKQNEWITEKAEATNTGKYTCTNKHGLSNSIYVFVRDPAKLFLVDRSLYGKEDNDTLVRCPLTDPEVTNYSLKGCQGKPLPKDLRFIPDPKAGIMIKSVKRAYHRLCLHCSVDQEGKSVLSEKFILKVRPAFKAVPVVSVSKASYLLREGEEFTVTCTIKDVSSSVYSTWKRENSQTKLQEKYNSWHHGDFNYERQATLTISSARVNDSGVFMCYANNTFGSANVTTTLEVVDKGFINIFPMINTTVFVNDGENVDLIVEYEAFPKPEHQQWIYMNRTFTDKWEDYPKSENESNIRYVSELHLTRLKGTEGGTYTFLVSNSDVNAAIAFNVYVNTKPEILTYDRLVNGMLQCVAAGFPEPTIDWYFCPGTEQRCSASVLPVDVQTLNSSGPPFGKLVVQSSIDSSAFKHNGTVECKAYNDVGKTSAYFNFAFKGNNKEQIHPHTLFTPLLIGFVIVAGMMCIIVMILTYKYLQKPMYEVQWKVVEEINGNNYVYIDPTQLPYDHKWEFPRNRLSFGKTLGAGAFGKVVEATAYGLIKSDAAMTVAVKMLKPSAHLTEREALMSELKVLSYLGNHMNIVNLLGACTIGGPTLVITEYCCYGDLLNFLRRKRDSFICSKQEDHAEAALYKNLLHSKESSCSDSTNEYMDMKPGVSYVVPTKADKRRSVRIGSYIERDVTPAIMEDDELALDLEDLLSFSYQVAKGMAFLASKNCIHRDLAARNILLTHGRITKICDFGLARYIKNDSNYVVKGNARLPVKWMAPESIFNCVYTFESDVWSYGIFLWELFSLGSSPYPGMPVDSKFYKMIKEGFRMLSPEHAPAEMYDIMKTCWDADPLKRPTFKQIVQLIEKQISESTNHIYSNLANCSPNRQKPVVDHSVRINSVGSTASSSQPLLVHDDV
TSSK2, sequence (Q96PF2 whole entry): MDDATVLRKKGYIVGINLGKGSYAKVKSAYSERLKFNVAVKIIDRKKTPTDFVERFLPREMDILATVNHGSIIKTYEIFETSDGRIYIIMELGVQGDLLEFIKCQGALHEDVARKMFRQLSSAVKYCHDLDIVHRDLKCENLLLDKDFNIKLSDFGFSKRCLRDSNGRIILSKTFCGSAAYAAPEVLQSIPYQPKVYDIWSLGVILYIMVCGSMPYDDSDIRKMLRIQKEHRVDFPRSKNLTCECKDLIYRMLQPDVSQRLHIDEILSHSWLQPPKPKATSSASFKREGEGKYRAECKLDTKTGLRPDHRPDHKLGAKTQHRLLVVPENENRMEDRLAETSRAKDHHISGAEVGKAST
FGFR3(K650M), sequence (P22607 whole entry K650M): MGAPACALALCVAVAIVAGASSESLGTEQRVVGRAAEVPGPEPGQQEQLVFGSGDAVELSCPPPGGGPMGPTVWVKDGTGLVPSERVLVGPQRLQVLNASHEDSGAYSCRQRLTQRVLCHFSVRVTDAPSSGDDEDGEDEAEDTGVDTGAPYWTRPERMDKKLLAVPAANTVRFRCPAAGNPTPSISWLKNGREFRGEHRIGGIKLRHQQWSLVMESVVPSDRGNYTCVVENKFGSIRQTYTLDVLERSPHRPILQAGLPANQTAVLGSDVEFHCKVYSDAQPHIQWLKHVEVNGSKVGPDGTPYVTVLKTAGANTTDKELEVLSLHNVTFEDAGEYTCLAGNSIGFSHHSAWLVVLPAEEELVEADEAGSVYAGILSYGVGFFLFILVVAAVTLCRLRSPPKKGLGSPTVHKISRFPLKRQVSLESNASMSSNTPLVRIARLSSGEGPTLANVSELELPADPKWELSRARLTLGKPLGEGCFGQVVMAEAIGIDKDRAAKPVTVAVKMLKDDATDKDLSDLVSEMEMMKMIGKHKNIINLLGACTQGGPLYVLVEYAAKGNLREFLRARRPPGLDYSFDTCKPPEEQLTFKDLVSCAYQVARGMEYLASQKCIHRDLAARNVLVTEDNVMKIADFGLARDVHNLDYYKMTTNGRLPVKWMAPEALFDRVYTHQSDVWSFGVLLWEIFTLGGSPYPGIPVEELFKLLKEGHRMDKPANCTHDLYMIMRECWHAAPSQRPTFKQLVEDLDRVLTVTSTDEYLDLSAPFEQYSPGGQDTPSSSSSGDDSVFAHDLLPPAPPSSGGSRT
JAK2, sequence (O60674 whole entry): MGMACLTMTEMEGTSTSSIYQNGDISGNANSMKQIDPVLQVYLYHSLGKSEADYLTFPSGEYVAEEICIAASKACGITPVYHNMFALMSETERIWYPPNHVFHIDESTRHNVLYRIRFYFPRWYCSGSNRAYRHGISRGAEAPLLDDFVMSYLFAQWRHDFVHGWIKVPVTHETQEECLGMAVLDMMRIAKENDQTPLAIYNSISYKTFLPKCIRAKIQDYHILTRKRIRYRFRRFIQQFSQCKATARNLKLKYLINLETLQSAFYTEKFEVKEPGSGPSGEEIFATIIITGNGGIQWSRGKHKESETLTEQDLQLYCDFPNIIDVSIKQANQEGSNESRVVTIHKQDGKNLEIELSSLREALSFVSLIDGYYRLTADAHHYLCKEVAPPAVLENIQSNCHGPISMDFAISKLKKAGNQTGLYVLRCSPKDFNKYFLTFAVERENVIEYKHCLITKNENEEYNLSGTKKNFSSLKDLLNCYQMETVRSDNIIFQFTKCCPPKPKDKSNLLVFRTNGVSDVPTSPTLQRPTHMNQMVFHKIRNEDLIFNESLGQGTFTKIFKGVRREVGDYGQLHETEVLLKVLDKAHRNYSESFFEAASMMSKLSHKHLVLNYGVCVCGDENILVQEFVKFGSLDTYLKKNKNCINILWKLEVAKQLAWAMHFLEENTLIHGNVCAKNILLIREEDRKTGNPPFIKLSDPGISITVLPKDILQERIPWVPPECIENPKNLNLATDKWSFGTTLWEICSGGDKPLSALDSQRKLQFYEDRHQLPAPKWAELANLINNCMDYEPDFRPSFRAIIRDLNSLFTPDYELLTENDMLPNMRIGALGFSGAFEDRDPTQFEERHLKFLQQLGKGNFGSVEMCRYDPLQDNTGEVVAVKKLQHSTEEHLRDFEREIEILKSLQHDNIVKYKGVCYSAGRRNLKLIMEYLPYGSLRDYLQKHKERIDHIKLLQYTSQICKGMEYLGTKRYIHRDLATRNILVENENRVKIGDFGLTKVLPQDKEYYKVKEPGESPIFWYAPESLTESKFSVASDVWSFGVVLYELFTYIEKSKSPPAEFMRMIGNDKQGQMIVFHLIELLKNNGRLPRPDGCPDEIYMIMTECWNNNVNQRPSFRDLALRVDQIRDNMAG
T4 sequence (P53779 whole entry): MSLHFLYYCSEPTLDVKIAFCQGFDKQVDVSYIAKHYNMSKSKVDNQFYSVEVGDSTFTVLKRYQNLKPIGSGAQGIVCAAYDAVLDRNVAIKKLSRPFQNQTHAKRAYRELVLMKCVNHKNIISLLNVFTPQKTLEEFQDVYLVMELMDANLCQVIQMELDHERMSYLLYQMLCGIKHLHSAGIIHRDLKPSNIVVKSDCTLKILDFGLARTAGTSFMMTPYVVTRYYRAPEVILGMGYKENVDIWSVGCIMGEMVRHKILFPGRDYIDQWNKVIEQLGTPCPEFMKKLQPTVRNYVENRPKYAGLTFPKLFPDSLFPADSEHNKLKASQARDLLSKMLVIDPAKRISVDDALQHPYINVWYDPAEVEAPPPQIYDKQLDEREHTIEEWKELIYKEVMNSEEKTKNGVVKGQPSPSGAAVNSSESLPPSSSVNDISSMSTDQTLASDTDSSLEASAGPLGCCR

Compound: c1cc(-c2ccc3[nH]ncc3c2)ccn1 [TG693, 5-(4-pyridinyl)-1H-indazole]
- inhibition at 1 µM (RSK4): -6.5%
- inhibition at 1 µM (LOK): 5.9%
- inhibition at 1 µM (BRSK2): 6.7%
- inhibition at 1 µM (PHKG2): 6.3%
- inhibition at 1 µM (BTK): -9.5%
- inhibition at 1 µM (TRKA): 5.1%
- inhibition at 1 µM (MET(D1228H)): 0.6%
- inhibition at 1 µM (KIT(D816Y)): -1.7%
- inhibition at 1 µM (FGFR3(K650M)): 7.8%
- inhibition at 1 µM (MAP4K2): 1.9%
- inhibition at 1 µM (JNK3): -4.4%
- inhibition at 1 µM (TYK2): 0.6%
- inhibition at 1 µM (JAK2): 7.9%
- inhibition at 1 µM (JAK1): -0.7%
- inhibition at 1 µM (TSSK2): -0.1%
- inhibition at 1 µM (CLK2): 14.9%
- inhibition at 1 µM (PKCβ2): -11.8%
- inhibition at 1 µM (MRCKα): -18.2%
- inhibition at 1 µM (CLK3): 11.7%
- inhibition at 1 µM (PIM2): -3.5%
- inhibition at 1 µM (HIPK2): -2%
- inhibition at 1 µM (PKCβ1): -11.4%
- inhibition at 1 µM (MST1): -1.9%
- inhibition at 1 µM (PDK1): -3.9%
- inhibition at 1 µM (EGFR): -10.7%
- inhibition at 1 µM (CDK2/CycA2): 41.4%
- inhibition at 1 µM (PDGFRα(D842V)): 0.8%
- inhibition at 1 µM (FMS): 2.6%
- inhibition at 1 µM (MSSK1): -7.3%
- inhibition at 1 µM (NDR2): 7.5%
- inhibition at 1 µM (PRKX): 12.2%
